Broadly, the Ki is a measure of affinity in units of concentration, obtained from inhibition or displacement. A higher Ki goes with lower affinity.

Stromelysin, sequence (P08254 100-477): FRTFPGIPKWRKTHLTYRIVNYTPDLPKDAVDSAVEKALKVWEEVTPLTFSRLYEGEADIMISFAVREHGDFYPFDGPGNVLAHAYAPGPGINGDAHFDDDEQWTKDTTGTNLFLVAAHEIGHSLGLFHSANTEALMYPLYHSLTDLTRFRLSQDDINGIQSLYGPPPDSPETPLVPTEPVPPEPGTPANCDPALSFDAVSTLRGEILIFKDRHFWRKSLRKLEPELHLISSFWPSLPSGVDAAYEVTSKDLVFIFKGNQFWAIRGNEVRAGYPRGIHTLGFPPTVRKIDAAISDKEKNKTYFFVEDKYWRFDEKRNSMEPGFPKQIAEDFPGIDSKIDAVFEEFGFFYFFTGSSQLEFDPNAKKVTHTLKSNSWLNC

The experiment concerns the target Stromelysin (Homo sapiens, UniProt P08254). Briefly: MMP inhibition, particle concentration fluorescence assay. In kind it is biochemical. To be noted: in vitro; fluorescein/biotin substrate; MMP buffer pH 7.5; room temperature.
Method: Inhibitory activity is evaluated in one or more of the MMP enzymes (stromelysin, gelatinase, and collagenase) in vitro using particle concentration fluorescence assay. An inhibitor binds to MMP enzymes which prevents the degradation of a substrate by stromelysin, gelatinase, or collagenase. The substrate has attached to it a fluorescein and a biotin moiety. The intact substrate then binds to an avidin-coated particle via the biotin moiety. Once the particle is washed and dried, a fluorescent signal is generated since the fluorescent group is attached to the particle. Without an inhibitor present, the substrate is degraded by MMP enzymes and the fluorescein group is removed, therefore, no fluorescent signal can be detected. Testing compounds are dissolved in DMSO to the desired concentration, then the solutions are diluted to 1:5 with MMP buffer (50 mM Tris-HCl, pH 7.5; 150 mM NaCl; 0.02% NaN3). Serial two-fold dilutions of each compound are prepared. A concentrated, activated enzyme solution is transferred into each plate of the testing compounds, and the mixture is incubated at room temperature for 15 minutes. […] At this point, the substrate mixture is mixed with 0.1% avidin-coated polystyrene particles. After 15 minutes, the fluorescence values are measured following filtration and washing of the beads. Ki values are then calculated.
In turn, `COC(=O)[C@H](CSCc1ccc(OC)cc1)NC(=O)Nc1n[nH]c(=S)s1` [Example 68, N-[[(4,5-Dihydro-5-thioxo-1,3,4-thiadiazol-2-yl)amino]carbonyl]-S-[(4-methoxyphenyl)methyl]-L-cysteine methyl ester] had a Ki of 2050 nM.

On to `CNC(=O)[C@H](CSCc1ccc(C)cc1)NC(=O)Nc1n[nH]c(=S)s1` [Example 70, 2-[[[(4,5-Dihydro-5-thioxo-1,3,4-thiadiazol-2-yl)amino]-carbonyl]amino]-N-methyl-3-[[(4-methylphenyl)methyl]thio]-(R)-propanamide], for which the Ki worked out at 1200 nM. Compared with the last compound, the Ki is about 1.7-fold lower.

As for `COC(=O)[C@H](CSCc1ccccc1)NC(=O)Nc1n[nH]c(=S)s1` [Example 71, N-[[(4,5-Dihydro-5-thioxo-1,3,4-thiadiazol-2-yl)amino]carbonyl]-S-(phenylmethyl)-L-cysteine methyl ester], the Ki was determined as 2510 nM. Against the preceding compound, the Ki is about 2.1-fold higher.

Compound `CNC(=O)[C@H](CSCc1ccccc1)NC(=O)Nc1n[nH]c(=S)s1` [Example 72, 2-[[[(4,5-Dihydro-5-thioxo-1,3,4-thiadiazol-2-yl)amino]carbonyl]-amino]-N-methyl-3-[(phenylmethyl)thio]-(R)-propanamide] displayed a Ki of 1050 nM.

`CNC(=O)[C@H](COC(C)(C)C)NC(=O)Nc1n[nH]c(=S)s1` [Example 73, 2-[[[(4,5-Dihydro-5-thioxo-1,3,4-thiadiazol-2-yl)amino]carbonyl]-amino]-3-(1,1-dimethylethoxy)-N-methyl-(S)-propanamide] returned a Ki of 1600 nM. This Ki lies about 1.5-fold higher than the previous one.

The compound `COC(=O)[C@@H](NC(=O)Nc1n[nH]c(=S)s1)[C@@H](C)OC(C)(C)C` [Example 74] gave a Ki of 1870 nM.

Compound `COC(=O)[C@H](Cc1ccc(-c2ccccc2)cc1)NC(=O)Nc1n[nH]c(=S)s1` [Example 78, α-[[[(4,5-Dihydro-5-thioxo-1,3,4-thiadiazol-2-yl)amino]carbonyl]amino]-(S)-(1,1'-biphenyl)-4-propanoic acid methyl ester] had a Ki of 3020 nM.

Take `CNC(=O)[C@H](Cc1ccc(-c2ccccc2)cc1)NC(=O)Nc1n[nH]c(=S)s1` [Example 79, α-[[[(4,5-Dihydro-5-thioxo-1,3,4-thiadiazol-2-yl)amino]carbonyl]amino]-N-methyl-(S)-(1,1'-biphenyl)-4-propanamide]: the affinity corresponds to a Ki of 7390 nM.

As for `COC(=O)[C@H](Cc1ccc(C(C)(C)C)cc1)NC(=O)Nc1n[nH]c(=S)s1` [Example 80, N-[[(4,5-Dihydro-5-thioxo-1,3,4-thiadiazol-2-yl)amino]carbonyl]-4-(1,1-dimethylethyl)-L-phenylalanine methyl ester], the Ki was determined as 800 nM.

The compound `CNC(=O)[C@H](Cc1ccc(C(C)(C)C)cc1)NC(=O)Nc1n[nH]c(=S)s1` [Example 81, α-[[[(4,5-dihydro-5-thioxo-1,3,4-thiadiazol-2-yl)amino]carbonyl]amino]-4-(1,1-dimethylethyl)-N-methyl-(S)-benzenepropanamide] had a Ki of 1820 nM.

The record behind these values is patent EP0900211B1 (PHARMACIA & UPJOHN COMPANY, priority 1996, dated 1997).
